One series has as its system CD5 target locus. As to the kind of experiment: Amplicon sequencing of the CD5 target locus, repair outcomes. To be noted: small CD5-HA templates. The class given is cell-based, human. From the text:
We further examined repair outcomes at the genetic level by amplicon sequencing of the CD5 target locus with different versions of the small CD5-HA templates and inhibitor cocktails. […] The ratio of perfect:imperfect HDR events was also similar across the different types of templates. Intriguingly, […] […] Inclusion of HDR templates was associated with preferential reduction in the larger deletions characteristic of MMEJ (while smaller indels characteristic of NHEJ were more refractory in the absence of DNA-PK inhibition), in agreement with recent reports.

Series [1] concerns primary human T cells. As to the kind of experiment: CD5-HA knock-in with short ssDNA HDRT, knock-in efficiency by flow cytometry. The class given is cell-based. To be noted: short ssDNA CD5-HA knock-in construct, optimal concentrations, inhibitors for 24 hours after electroporation. In general terms: Flow cytometry measures light scatter and fluorescence of single cells or particles in a stream.
Excerpt: (a) Evaluation of relative increase in % knock-in using an ssDNA CD5-HA knock-in construct over varied concentrations of 5 different small molecule inhibitors assessed by flow cytometry. […] (b) Comparison of relative % knock-in (top) and live cell counts (bottom) with small molecule inhibitor combinations. […] Panel a, b, and d were each performed with T cells from 2 independent healthy human blood donors. […] Error bars indicate standard deviation. CTS=Cas9 Target Site, HDRT=homology-directed-repair template, dsCTS=dsDNA+CTS HDRT, ssCTS=ssDNA+CTS HDRT, TSA=Trichostatin A, HDR Enhancer=IDT Alt-R HDR Enhancer, MT=M3814+TSA, MTX=M3814+TSA+XL413.
(§2) Trichostatin A (TSA) (Cayman Chemical), Nedisertib (M3814) (MedKoo Biosciences), XL413 hydrochloride (XL413) (Fisher Scientific), NU7441 (Fisher Scientific), and Alt-R HDR enhancer (IDT) were prepared and stored as aliquots per manufacturer guidelines. For experiments using small molecule inhibitors, cells were incubated with the indicated concentrations upon addition of fresh growth media following the 15 minute rescue step, and removed by media exchange after 24 hours.

Series [2] relates to primary human T cells. As to the kind of experiment: Live cell counts after electroporation with small molecule inhibitors. The class given is cell-based.
Description: (d) Evaluation of live cell counts with MT and MTX inhibitor combinations using 44 different knock-in constructs targeting a tNGFR marker across 22 different target loci with 2 gRNA per gene (g1 and g2). Panel a, b, and d were each performed with T cells from 2 independent healthy human blood donors. Panel c was performed with T cells from 4-6 independent healthy human blood donors. Error bars indicate standard deviation. CTS=Cas9 Target Site, HDRT=homology-directed-repair template, dsCTS=dsDNA+CTS HDRT, ssCTS=ssDNA+CTS HDRT, TSA=Trichostatin A, HDR Enhancer=IDT Alt-R HDR Enhancer, MT=M3814+TSA, MTX=M3814+TSA+XL413.
as §2
In series [3] the test system is primary human T cells. Type of series: cell-based. The conditions noted are these: ssCTS tNGFR template +/- MT and MTX. The source says: (a) Knock-in efficiencies for constructs targeting a tNGFR marker to 22 different target genome loci. (b-d) Comparison of large ssDNA and dsDNA HDRTs with CTS sites for knock-in of a pooled library of 2.6-3.6 kb polycistronic constructs targeted to the TRAC locus. Shown for each HDRT variation is (b) relative % knock-in in comparison to maximum for dsDNA+CTS templates, (c) relative knock-in cell count yields in comparison to maximum for dsDNA+CTS templates, and (d) representation of each library member in knock-in cells post-electroporation in comparison to construct representation the input plasmid pool. (e-g) Comparison of knock-in cell yields using ssDNA (red) and dsDNA HDRTs (blue) with CTS sites across a variety of primary human hematopoietic cell types. Note, different cell type comparisons are performed with different blood donors. All comparisons were performed using a knock-in construct generating an CLTA-mCherry fusion at the CLTA locus. Shown for each cell type using HDRT concentrations from 5-160 nM are (e) knock-in cell count yields, (f) maximum fold-change in knock-in count yields (relative to dsCTS templates), and (g) maximum % knock-in. […]
(a) Evaluation of relative increase in % knock-in using an ssDNA CD5-HA knock-in construct over varied concentrations of 5 different small molecule inhibitors assessed by flow cytometry. […]

The test system of another series is IL2RA. As to the kind of experiment: TIDE indel analysis, RNPs targeting exon 1 of IL2RA +/- M3814 and TSA. The conditions noted are these: with addition of M3814 and TSA. Type of series: cell-based, human. As to the method: Media was refreshed after 24 hours in all samples, and cells were resuspended in growth media and IL-2. Six days after electroporations, genomic DNA was isolated from samples and amplicons were generated using PCR. Amplicons were sequenced and analyzed using TIDE (Tracking of Indels by Decomposition) to determine distinct changes in indel spectrums.

The subject of a further series is CTLA4 protein. As to the kind of experiment: CTLA4 gRNA screen: protein disruption by CTLA4 flow cytometric analysis. Type of series: cell-based, human. To be noted: activated CD4+ T cells, flow cytometry. On the procedure: Flow Cytometry. All flow cytometry was performed on an Attune NxT flow cytometer with a 96-well autosampler (Thermo Fisher Scientific). Unless otherwise indicated, cells were collected 3-5 days post-electroporation, resuspended in FACS buffer (1%-2% BSA in PBS) and stained with Ghost Dye red 780 (Tonbo) and the indicated cell-surface and intracellular markers (see Table 2 for antibodies). For intracellular staining, cells were stained for surface markers and then prepared for intracellular staining using True-Nuclear Transcription Factor staining kits (Biolegend). […] Analysis was done using FlowJo v10 software. All gating strategies included exclusion of subcellular debris, singlet gating, and live:dead stain. Final graphs were produced with Prism (GraphPad), and figures were compiled with Illustrator (Adobe).
(§1) As a further example, we examined an ORF insertion within the CTLA4 gene (FIG. 8E). CTLA4 deficiency is caused most frequently by a haploinsufficiency with a disease-causing mutation on only 1 of 2 alleles. Exon-targeting strategies generate indels which could disrupt the normal allele and worsen disease. To avoid this possibility, we screened a panel of gRNA in intron 1, set forth in Table 3, to identify targets which cut efficiently without disrupting protein expression (FIG. 7B).

Another series deals with CTLA4 gene. As to the kind of experiment: CTLA4 gRNA screen: cutting efficiency by TIDE indel analysis. The conditions noted are these: TIDE indel analysis at target locus. Type of series: cell-based, human.
Excerpt: as §1

Turning to `COc1ccc([C@@H](O)c2cc(-c3ncnc4cc(N5CCOCC5)ccc34)c(F)cc2Cl)nn1` [M3814, (S)-(2-chloro-4-fluoro-5-(7-morpholinoquinazolin-4-yl)phenyl)(6-methoxypyridazin-3-yl)methanol], the “repair outcomes: frequency of indels” value in the series on CD5 target locus is listed as “decreased frequency of indels”. Further, in the series on primary human T cells [1], the “increase in knock-in efficiency” value is recorded as roughly 49%.

`O=c1cc(N2CCOCC2)oc2c(-c3cccc4c3sc3ccccc34)cccc12` [NU7441, 8-(dibenzo[b,d]thiophen-4-yl)-2-morpholino-4H-chromen-4-one]: the “increase in knock-in efficiency” value in the series with primary human T cells [1] is reported as roughly 43%.

`CC(/C=C/C(=O)NO)=C\[C@@H](C)C(=O)c1ccc(N(C)C)cc1` [TSA, [R-(E,E)]-7-[4-(dimethylamino)phenyl]-N-hydroxy-4,6-dimethyl-7-oxo-2,4-heptadienamide]: the “increase in knock-in efficiency” value in the series on primary human T cells [1] is on record as roughly 16%. On to `Cl.O=c1[nH]c([C@@H]2CCCN2)nc2c1oc1ccc(Cl)cc12` [XL413, (S)-8-chloro-2-(pyrrolidin-2-yl)benzofuro[3,2-d]pyrimidin-4(3H)-one hydrochloride], for which the “reduction in cell counts” value is on record as roughly 20% with primary human T cells [2] (Day 11) and roughly 50% in the series with primary human T cells [2] (day 4 post-electroporation). The “increase in knock-in efficiency” value in the series with primary human T cells [1] is recorded as roughly 46%. Take “CD7 g1: gRNA targeting CD7, TCAGCTGCACTCGCCCGGCT (SEQ ID NO: 17), with corresponding tNGFR ssCTS template (listed as DNA, chemistry not given here)”: in the series on primary human T cells [3], the “effect size of inhibitors: increase in knock-in efficiency” value was “relatively little increase”. As to “G377: crRNA/gRNA targeting IL2RA, TGAGCAGTCCCCACATCAGC (SEQ ID NO: 13) (listed as DNA, chemistry not given here)”, the cutting efficiency entry in the series on IL2RA is listed as “not impacted”. Regarding “G509: gRNA, CTLA4 exon 1, target sequence CCTTGTGCCGCTGAAATCCA (SEQ ID NO: 63) (listed as DNA, chemistry not given here)”, in the series with CTLA4 protein, the “%CTLA4 protein loss above background” value was determined as 39.2%. The “%indel” value with CTLA4 gene worked out at 78.2%. For “G510: gRNA, CTLA4 exon 1, target sequence CCTTGGATTTCAGCGGCACA (SEQ ID NO: 64) (listed as DNA, chemistry not given here)”, in the series with CTLA4 protein, the “%CTLA4 protein loss above background” value came to 16.65%. Moreover, the “%indel” value with CTLA4 gene was 47.7%. For “G511: gRNA, CTLA4 exon 1, target sequence GCACAAGGCTCAGCTGAACC (SEQ ID NO: 65) (listed as DNA, chemistry not given here)”, the “%CTLA4 protein loss above background” value in the series with CTLA4 protein came to 32.4%. In addition, the “%indel” value in the series on CTLA4 gene is 71.85%. Turning to “G512: gRNA, CTLA4 exon 1, target sequence CTCAGCTGAACCTGGCTACC (SEQ ID NO: 66) (listed as DNA, chemistry not given here)”, the “%CTLA4 protein loss above background” value in the series on CTLA4 protein came to 1.3%. Also, the “%indel” value in the series on CTLA4 gene amounted to 12.15%. Take “G513: gRNA, CTLA4 exon 1, target sequence TGAACCTGGCTACCAGGACC (SEQ ID NO: 67) (listed as DNA, chemistry not given here)”: the “%CTLA4 protein loss above background” value in the series on CTLA4 protein is recorded as 10.2%. Moreover, in the series on CTLA4 gene, the “%indel” value is given as 23.7%. As to “G514: gRNA, CTLA4 exon 1, target sequence AGAAAAAACAGGAGAGTGCA (SEQ ID NO: 68) (listed as DNA, chemistry not given here)”, the “%CTLA4 protein loss above background” value in the series on CTLA4 protein worked out at 47.45%. Besides, the “%indel” value with CTLA4 gene came out at 94.35%. For the compound “G515: gRNA, CTLA4 intron 1, target sequence TTGTATGCCAAACAGACTGG (SEQ ID NO: 69) (listed as DNA, chemistry not given here)”, the “%CTLA4 protein loss above background” value in the series on CTLA4 protein was 0%. Also, the “%indel” value in the series on CTLA4 gene was 79.25%.

As to “G516: gRNA, CTLA4 intron 1, target sequence TGCATCTGAAACCCACACGT (SEQ ID NO: 70) (listed as DNA, chemistry not given here)”, in the series on CTLA4 protein, the “%CTLA4 protein loss above background” value was 0%. For the same compound, the “%indel” value with CTLA4 gene turned out to be 61.95%. Regarding “G517: gRNA, CTLA4 intron 1, target sequence CTCTGAAGAGCTGAAAACTG (SEQ ID NO: 71) (listed as DNA, chemistry not given here)”, the “%CTLA4 protein loss above background” value in the series on CTLA4 protein amounted to 0%. Further, the “%indel” value in the series with CTLA4 gene turned out to be 80.35%.

For the compound “G519: gRNA, CTLA4 intron 1, target sequence ACATATTTCATGGTAGAGCC (SEQ ID NO: 73) (listed as DNA, chemistry not given here)”, in the series on CTLA4 protein, the “%CTLA4 protein loss above background” value stood at 0%. Further, the “%indel” value in the series with CTLA4 gene is recorded as 89.65%. On the same counts, the results for “G520: gRNA, CTLA4 intron 1, target sequence GATATGACAAACAGAAGACC (SEQ ID NO: 4) (listed as DNA, chemistry not given here)” are 0% and 72.5%.

For the compound “PI3KCD g2: gRNA targeting PI3KCD, TAACAACGCAGGATGCCCCC (SEQ ID NO: 38), with corresponding tNGFR ssCTS template (listed as DNA, chemistry not given here)”, the “effect size of inhibitors: increase in knock-in efficiency” value in the series with primary human T cells [3] was “up to 7 fold”.

The values are drawn from patent US20250290099A1, “MATERIALS AND METHODS FOR TARGETED GENETIC MANIPULATIONS IN CELLS” (The Regents of the University of California, priority 2021, published 2025).
